We go through one molecule from patent publication US20230364119A1, “AUTOPHAGY ACTIVATOR” (Resonac Corporation, priority 2020, published 2023).

In one experiment the test system is LC3 gene. Put plainly: LC3 gene expression promoting effect in human neuroblastoma in the presence of amyloid β. The experiment is classed as cell-based. The protocol:
In the presence of an autophagy activator, the expression levels of the LC3 gene, ATG5 gene, and Beclin 1 gene in human neuroblastoma (SH-SY5Y; obtained from ATCC) were measured by the following test method, and the effect of promoting the expression of the LC3 gene, ATG5 gene, and Beclin 1 gene by an autophagy activator was evaluated.
In the following examples and comparative examples, tests were performed by adding amyloid β, which is known to cause a decrease in autophagy in nerve cells, to each medium.
SH-SY5Y cells were prepared at a seeding density of 10000 cells/cm^2 and cultured for 24 hours in D-MEM medium/Ham's F-12 medium (manufactured by Sigma-Aldrich) to which 10% fetal bovine serum (manufactured by MP Biomedicals) was added. Next, in Example 15, the inositol derivative A dissolved in purified water was added to the medium such that the final concentration of the inositol derivative A was 10-4% (V/V). […]
Then, using Nucleospin (registered trademark) RNA kit (manufactured by Takara Bio Inc.), RNA was extracted from SH-SY5Y cells in each example, and cDNA was synthesized from the obtained RNA. Next, using this cDNA as a template, by quantitative real-time PCR, the expression level of each gene was quantified using primers (manufactured by Takara Bio Inc.) specific to the LC3 gene, ATG5 gene, and Beclin 1 gene, respectively. […]

The test system of experiment [1] is human neuroblastoma (SH-SY5Y). Kind of experiment: Apoptosis suppressing action caused by amyloid β in human neuroblastoma (Hoechst 33342 staining). Format: cell-based. Here is the method:
The proportion of apoptotic cells in human neuroblastoma (SH-SY5Y; obtained from ATCC) in the presence of an autophagy activator was measured by the following test method to evaluate the apoptosis suppressing action of the autophagy activator.
In the following examples and comparative examples, tests were performed by adding amyloid β, which is known to induce cell death called apoptosis of nerve cells due to a decrease in autophagy, to each medium.
SH-SY5Y cells were prepared at a seeding density of 50000 cells/cm^2 and cultured for 24 hours in D-MEM medium/Ham's F-12 medium (manufactured by Sigma-Aldrich) to which 10% fetal bovine serum (manufactured by MP Biomedicals) was added. […]
Thereafter, an aqueous solution of 10 μM Hoechst 33342 (manufactured by Sigma-Aldrich) was added to each SH-SY5Y cell from which the medium was removed, and the cells were allowed to stand at room temperature (25° C.) for 10 minutes. After removing the solution, each SH-SY5Y cell was washed with phosphate buffer (PBS, manufactured by FUJIFILM Wako Pure Chemical Corporation), and with a fluorescence microscope, the number of cells showing strong apoptosis-like Hoechst fluorescence due to chromatin aggregation (Hoechst (+) cells) was counted. […] For each example, relative values were calculated when the proportion of apoptotic cells in Reference Example 4 was set to 1.00, and the results are shown in Table 7.

Take `O[C@H]1[C@H](O)[C@@H](O)[C@H](O)[C@@H](O)[C@H]1O` [Comparative Example 2, myo-inositol]: in the experiment on LC3 gene (SH-SY5Y cells with amyloid β, compared to Reference Example 3 (purified water only, no amyloid β)), the “expression level of the LC3 gene, in words” value is recorded as “slightly increased”. Moreover, in the experiment on LC3 gene (SH-SY5Y cells, 20 μM amyloid β present, 48 hours, 10^−3% (V/V) inositol or inositol derivative A, with the vitamin derivative of the example where added, Reference Example 3 (purified water, no amyloid β) = 1.00), the “Relative gene expression level LC3” value was found to be 1.41. In addition, the “proportion of apoptotic cells, in words” value in experiment [1] (SH-SY5Y cells with amyloid β, compared to Comparative Example 7 (purified water and amyloid β)) is listed as “almost the same”. The “Proportion of apoptotic cells” value in experiment [1] (SH-SY5Y cells, 30 μM amyloid β present, 48 hours, 10^−3% (V/V) inositol or inositol derivative A, with the vitamin derivative of the example where added, relative value, Reference Example 4 (purified water, no amyloid β) = 1.00) is 3.98.
